Results published in paper PMC12527922, “Cocaine chemogenetics blunts drug-seeking by synthetic physiology” (Nature, 2025).

Tests used:
[1] = test system: coca-5HT3 in cultured hippocampal neurons; experiment: Current-clamp of cultured hippocampal neurons expressing coca-5HT3; assay type: cell-based, rat; details: for DmV MEAN: coca-5HT3-IRES-EGFP, MEAN of cells
[2] = test system: hippocampal neurons expressing GFP; experiment: Current-clamp of control cultured hippocampal neurons expressing GFP; assay type: cell-based, rat; details: for DmV MEAN: IRES-EGFP control, MEAN of cells
[3] = test system: [^18F]fallypride binding at D2/D3 receptors (extracellular dopamine); experiment: [^18F]fallypride PET, rats with coca-5HT3 in the LHb and controls; assay type: in vivo, rat
Description: Male Sprague–Dawley rats were anaesthetized with isoflurane (1.5-2%) and then placed onto a stereotaxic frame (Kopf) and injected with AAV5-Syn::coca-5HT3-IRES-mCherry (0.5 µl, 4.95 × 10^12 vg per ml) into the LHb (AP relative to bregma, −3.8 mm; ML, ±0.7 mm; DV, −5.25 mm, at a 10° angle) (n = 5) or underwent sham surgery (n = 9). Male Th-cre rats were anaesthetized with isoflurane (1.5–2%) and then placed onto a stereotaxic frame (Kopf) and injected with AAV1-Syn::FLEX-coca-GlyR-IRES-mCherry (0.5 µl, 6 × 10^12 vg per ml) into the VTA (AP, −6.0 mm relative to bregma; ML, ±1.9 mm; DV, −8.3 mm at a 10° angle) (n = 9) or underwent sham surgery (n = 6). Approximately 3 weeks later, the rats were anaesthetized, placed inside the PET scanner (Mediso NanoScan PET/CT), injected with [^18F]fallypride (~13 MBq) and then scanned using PET. [^18F]fallypride reaches steady-state by around 45 min after its injection and then remains stable for at least 150 min[60]. […] The PET data were reconstructed and corrected for dead-time and radioactive decay and then co-registered to an magnetic resonance imaging template as previously described[46],[60],[61]. Co-registered images were analysed using one-way ANOVA and the resulting parametric images were filtered for statistically significant (P < 0.01) clusters larger than 100 contiguous voxels. All statistical parametric mapping (SPM) analyses were performed using MATLAB R2016 (MathWorks) and SPM12 (University College London)[62]. Next, additional quantitative assessments of PET images were performed using the PMOD software environment (PMOD Technologies). We generated time–activity curves using the co-registered dynamic PET images and the significant voxel clusters defined by the voxel-wise SPM analysis as the volume of interest. The standardized uptake value (SUV) was calculated using the equation SUV = C/(dose/BW) where C is the tissue concentration of [^18F]fallypride (kBq cm^−3), dose is the administered dose (MBq) and BW (kg) is the animal’s body weight. Statistical analyses were performed using Prism 10 (GraphPad).

multiple nAChR subtypes = details: cited from earlier work

SMILES: COC(=O)[C@H]1[C@@H](OC(=O)c2ccccc2)C[C@@H]2CC[C@H]1N2C [cocaine]
- current required to elicit an action potential (rheobase) ([1]; 3 µM cocaine): reduced
- DmV MEAN ([1]; cocaine 0.1 uM): 0.3818 mV
- DmV MEAN ([1]; cocaine 0.3 uM): 1.236 mV
- DmV MEAN ([1]; cocaine 1 uM): 4.155 mV
- DmV MEAN ([1]; cocaine 3 uM): 11.3545 mV
- DmV MEAN ([1]; cocaine 10 uM): 12.55 mV
- neuronal firing ([1]; cocaine 1–3 µM): increased
- depolarization of neurons expressing coca-5HT3 ([1]; current-clamp): depolarized neurons in a dose-dependent manner
- depolarization of control neurons ([2]; GFP control neurons): did not affect control neurons
- DmV MEAN ([2]; cocaine 0.1 uM): -0.03 mV
- DmV MEAN ([2]; cocaine 0.3 uM): -0.2411 mV
- DmV MEAN ([2]; cocaine 1 uM): 0.04889 mV
- DmV MEAN ([2]; cocaine 3 uM): 0.31 mV
- DmV MEAN ([2]; cocaine 10 uM): -0.01556 mV
- DmV MEAN ([2]; cocaine 30 uM): -0.4375 mV
- Cerebellum, Mean ([3]; Coca-5HT3, Time 60 min): 111.27
- Striatum, Mean ([3]; Coca-5HT3, Time 60 min): 100.47
- Cerebellum, Mean ([3]; Coca-5HT3, Time 63 min): 107.441
- Striatum, Mean ([3]; Coca-5HT3, Time 63 min): 99.116
- Cerebellum, Mean ([3]; Coca-5HT3, Time 66 min): 105.193
- Striatum, Mean ([3]; Coca-5HT3, Time 66 min): 105.45
- Cerebellum, Mean ([3]; Coca-5HT3, Time 69 min): 101.891
- Striatum, Mean ([3]; Coca-5HT3, Time 69 min): 101.914
- Cerebellum, Mean ([3]; Coca-5HT3, Time 72 min): 100.511
- Striatum, Mean ([3]; Coca-5HT3, Time 72 min): 99.6684
- Cerebellum, Mean ([3]; Coca-5HT3, Time 75 min): 97.2849
- Striatum, Mean ([3]; Coca-5HT3, Time 75 min): 101.446
- Cerebellum, Mean ([3]; Coca-5HT3, Time 78 min): 98.3773
- Striatum, Mean ([3]; Coca-5HT3, Time 78 min): 97.1795
- Cerebellum, Mean ([3]; Coca-5HT3, Time 81 min): 97.6857
- Striatum, Mean ([3]; Coca-5HT3, Time 81 min): 99.4438
- Cerebellum, Mean ([3]; Coca-5HT3, Time 84 min): 92.2137
- Striatum, Mean ([3]; Coca-5HT3, Time 84 min): 99.5545
- Cerebellum, Mean ([3]; Coca-5HT3, Time 87 min): 94.6333
- Striatum, Mean ([3]; Coca-5HT3, Time 87 min): 100.176
- Cerebellum, Mean ([3]; Coca-5HT3, Time 90 min): 93.4987
- Striatum, Mean ([3]; Coca-5HT3, Time 90 min): 95.582
- Cerebellum, Mean ([3]; Coca-5HT3, Time 92 min): 99.4012
- Striatum, Mean ([3]; Coca-5HT3, Time 92 min): 95.8906
- Cerebellum, Mean ([3]; Coca-5HT3, Time 94 min): 96.5331
- Striatum, Mean ([3]; Coca-5HT3, Time 94 min): 92.7294
- Cerebellum, Mean ([3]; Coca-5HT3, Time 96 min): 96.1496
- Striatum, Mean ([3]; Coca-5HT3, Time 96 min): 97.7961
- Cerebellum, Mean ([3]; Coca-5HT3, Time 98 min): 96.6515
- Striatum, Mean ([3]; Coca-5HT3, Time 98 min): 98.5867
- Cerebellum, Mean ([3]; Coca-5HT3, Time 100 min): 92.3336
- Striatum, Mean ([3]; Coca-5HT3, Time 100 min): 97.1381
- Cerebellum, Mean ([3]; Coca-5HT3, Time 104 min): 94.2368
- Striatum, Mean ([3]; Coca-5HT3, Time 104 min): 97.3152
- Cerebellum, Mean ([3]; Coca-5HT3, Time 106 min): 94.1983
- Striatum, Mean ([3]; Coca-5HT3, Time 106 min): 95.2722
- Cerebellum, Mean ([3]; Coca-5HT3, Time 110 min): 94.753
- Striatum, Mean ([3]; Coca-5HT3, Time 110 min): 92.686
- Cerebellum, Mean ([3]; Coca-5HT3, Time 112 min): 89.5645
- Striatum, Mean ([3]; Coca-5HT3, Time 112 min): 94.0331
- Cerebellum, Mean ([3]; Coca-5HT3, Time 116 min): 89.6884
- Striatum, Mean ([3]; Coca-5HT3, Time 116 min): 93.7732
- Cerebellum, Mean ([3]; Coca-5HT3, Time 118 min): 92.5349
- Striatum, Mean ([3]; Coca-5HT3, Time 118 min): 94.2486
- Cerebellum, Mean ([3]; Coca-5HT3, Time 120 min): 85.32
- Striatum, Mean ([3]; Coca-5HT3, Time 120 min): 92.7482
- Cerebellum, Mean ([3]; Control, Time 60 min): 103.946
- Striatum, Mean ([3]; Control, Time 60 min): 104.425
- Cerebellum, Mean ([3]; Control, Time 63 min): 103.573
- Striatum, Mean ([3]; Control, Time 63 min): 105.053
- Cerebellum, Mean ([3]; Control, Time 66 min): 103.781
- Striatum, Mean ([3]; Control, Time 66 min): 101.615
- Cerebellum, Mean ([3]; Control, Time 69 min): 101.695
- Striatum, Mean ([3]; Control, Time 69 min): 102.645
- Cerebellum, Mean ([3]; Control, Time 72 min): 100.786
- Striatum, Mean ([3]; Control, Time 72 min): 99.1445
- Cerebellum, Mean ([3]; Control, Time 75 min): 98.0752
- Striatum, Mean ([3]; Control, Time 75 min): 97.188
- Cerebellum, Mean ([3]; Control, Time 78 min): 100.961
- Striatum, Mean ([3]; Control, Time 78 min): 99.7495
- Cerebellum, Mean ([3]; Control, Time 81 min): 99.7275
- Striatum, Mean ([3]; Control, Time 81 min): 97.1175
- Cerebellum, Mean ([3]; Control, Time 84 min): 97.0682
- Striatum, Mean ([3]; Control, Time 84 min): 97.2682
- Cerebellum, Mean ([3]; Control, Time 87 min): 95.0129
- Striatum, Mean ([3]; Control, Time 87 min): 98.2036
- Cerebellum, Mean ([3]; Control, Time 90 min): 95.374
- Striatum, Mean ([3]; Control, Time 90 min): 97.5908
- Cerebellum, Mean ([3]; Control, Time 92 min): 99.2942
- Striatum, Mean ([3]; Control, Time 92 min): 96.7723
- Cerebellum, Mean ([3]; Control, Time 94 min): 98.6955
- Striatum, Mean ([3]; Control, Time 94 min): 94.2988
- Cerebellum, Mean ([3]; Control, Time 96 min): 97.5545
- Striatum, Mean ([3]; Control, Time 96 min): 90.3041
- Cerebellum, Mean ([3]; Control, Time 98 min): 95.1481
- Striatum, Mean ([3]; Control, Time 98 min): 92.8392
- Cerebellum, Mean ([3]; Control, Time 100 min): 95.7886
- Striatum, Mean ([3]; Control, Time 100 min): 87.2087
- Cerebellum, Mean ([3]; Control, Time 104 min): 93.5542
- Striatum, Mean ([3]; Control, Time 104 min): 88.7106
- Cerebellum, Mean ([3]; Control, Time 106 min): 95.3248
- Striatum, Mean ([3]; Control, Time 106 min): 84.6758
- Cerebellum, Mean ([3]; Control, Time 110 min): 94.4655
- Striatum, Mean ([3]; Control, Time 110 min): 84.755
- Cerebellum, Mean ([3]; Control, Time 112 min): 92.6418
- Striatum, Mean ([3]; Control, Time 112 min): 85.4315
- Cerebellum, Mean ([3]; Control, Time 116 min): 92.1838
- Striatum, Mean ([3]; Control, Time 116 min): 85.918
- Cerebellum, Mean ([3]; Control, Time 118 min): 92.0673
- Striatum, Mean ([3]; Control, Time 118 min): 82.9007
- Cerebellum, Mean ([3]; Control, Time 120 min): 91.4483
- Striatum, Mean ([3]; Control, Time 120 min): 84.8826
- [^18F]fallypride binding, cocaine versus saline ([3]; control rats, cocaine 3 mg per kg i.v., nucleus accumbens and ventromedial dorsal striatum voxels): significantly decreased
- activity at nAChR subtypes (multiple nAChR subtypes): low-affinity antagonist
